Assays:
[1] = target: T1, fibrin in tumor, TRAMP prostate tumor (Mus musculus, UniProt E9PV24+Q8K0E8+Q8VCM7); experiment: In vivo MRI, transgenic adenocarcinoma mouse prostate model (TRAMP), Example 17; conditions: 100 μmol/kg iv; control
T1 construct: from tissue; host or cells: tumor stroma of living mice (BALB-neuT mammary tumor, TRAMP prostate tumor, Neuro-2a neuroblastoma in A/J mice)
T1 sequence (E9PV24 20-557 isoform E9PV24-2 limits assumed): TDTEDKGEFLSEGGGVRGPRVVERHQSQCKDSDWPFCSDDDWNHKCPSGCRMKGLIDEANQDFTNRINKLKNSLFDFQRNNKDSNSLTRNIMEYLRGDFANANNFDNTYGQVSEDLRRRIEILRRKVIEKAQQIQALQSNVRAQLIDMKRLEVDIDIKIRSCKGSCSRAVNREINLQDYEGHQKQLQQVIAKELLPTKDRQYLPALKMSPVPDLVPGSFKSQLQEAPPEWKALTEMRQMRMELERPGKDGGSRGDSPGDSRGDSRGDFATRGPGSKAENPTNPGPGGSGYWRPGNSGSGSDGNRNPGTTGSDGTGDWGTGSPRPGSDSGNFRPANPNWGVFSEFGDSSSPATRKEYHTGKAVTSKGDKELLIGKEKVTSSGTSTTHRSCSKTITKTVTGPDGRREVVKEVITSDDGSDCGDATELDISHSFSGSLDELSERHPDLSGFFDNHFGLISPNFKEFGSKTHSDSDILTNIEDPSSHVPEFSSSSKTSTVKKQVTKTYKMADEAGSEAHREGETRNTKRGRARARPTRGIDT
T1 sequence (Q8K0E8 35-481 limits assumed): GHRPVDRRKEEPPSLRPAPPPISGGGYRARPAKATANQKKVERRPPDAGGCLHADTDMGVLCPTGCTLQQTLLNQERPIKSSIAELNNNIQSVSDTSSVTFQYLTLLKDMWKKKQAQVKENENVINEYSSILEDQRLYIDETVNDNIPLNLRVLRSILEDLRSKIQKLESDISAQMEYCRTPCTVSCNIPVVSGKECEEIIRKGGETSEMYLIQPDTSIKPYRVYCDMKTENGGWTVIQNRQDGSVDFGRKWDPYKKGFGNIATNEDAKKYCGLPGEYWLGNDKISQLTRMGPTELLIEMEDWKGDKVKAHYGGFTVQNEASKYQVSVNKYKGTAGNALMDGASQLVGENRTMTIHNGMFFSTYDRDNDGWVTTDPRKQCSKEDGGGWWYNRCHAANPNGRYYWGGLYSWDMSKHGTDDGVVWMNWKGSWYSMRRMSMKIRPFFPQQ
T1 sequence (Q8VCM7 26-436): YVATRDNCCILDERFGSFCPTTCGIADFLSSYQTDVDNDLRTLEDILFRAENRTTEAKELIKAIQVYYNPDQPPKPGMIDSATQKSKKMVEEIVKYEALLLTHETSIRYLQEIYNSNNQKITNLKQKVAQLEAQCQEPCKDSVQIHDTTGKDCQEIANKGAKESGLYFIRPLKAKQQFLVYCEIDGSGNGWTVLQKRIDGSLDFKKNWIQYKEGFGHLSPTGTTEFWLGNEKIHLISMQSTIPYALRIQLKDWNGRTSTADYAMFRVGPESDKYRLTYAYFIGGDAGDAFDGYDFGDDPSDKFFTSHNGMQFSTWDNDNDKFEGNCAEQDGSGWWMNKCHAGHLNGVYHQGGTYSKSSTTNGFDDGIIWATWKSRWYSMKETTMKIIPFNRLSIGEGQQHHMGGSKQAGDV
Procedure: This test has been performed in a transgenic adenocarcinoma mouse prostate model (TRAMP) developed by introducing a PB promoter—SV40 T antigen fusion transgene (PB-Tag) into the germ line of C57BL/6 inbred mice.
Two TRAMP mice were treated with ProHance® at 100 μmol/kg iv (control), and the day after with Chelate Complex 2 or with Chelate Complex 5 at 25 μmol/kg iv. T1 weighted SE images were acquired pre- and post-contrast injection and the kinetic of enhancement in the tumor was followed up to 3 h post-test compound administration.

[2] = target: T2, fibrin in tumor, mammary tumor mouse model (BALB-neuT) (Mus musculus, UniProt E9PV24+Q8K0E8+Q8VCM7); experiment: In vivo MRI, mammary tumor mouse model (BALB-neuT), Example 16; conditions: 100 μmol/kg; reference compound
T2 construct: from tissue; host or cells: tumor stroma of living mice (BALB-neuT mammary tumor, TRAMP prostate tumor, Neuro-2a neuroblastoma in A/J mice)
T2 sequence (E9PV24 20-557 isoform E9PV24-2 limits assumed): T1 sequence (E9PV24 20-557 isoform E9PV24-2 limits assumed)
T2 sequence (Q8K0E8 35-481 limits assumed): T1 sequence (Q8K0E8 35-481 limits assumed)
T2 sequence (Q8VCM7 26-436): T1 sequence (Q8VCM7 26-436)
Procedure: The test has been performed in a mammary tumor mouse model (BALB-neuT). Mice were treated with Chelate Complex 2 of the invention, 25 μmol/kg, injected iv, and with ProHance® at 100 μmol/kg. Signal enhancement of the tumor was followed up to 3 h after contrast administration.
Successive T1 weighted SE images were acquired pre- and post-injection of the test compounds and some examples are reported in FIGS. 6 and 7. Images are related to successive slices from the same mouse acquired at different time points post contrast. In particular, FIG. 6 includes images post-injection of chelate Complex 2 at 25 μmol/kg (arrows indicate tumor) and FIG. 7 includes analogous images post administration of ProHance®.

CC(O)CN1CCN(CC(=O)[O-])CCN(CC(=O)[O-])CCN(CC(=O)[O-])CC1.[Gd+3] (centres unmarked) [ProHance®]
Tumor signal enhancement (T1 weighted MRI), in words [1]: very weak signal enhancement | Tumor signal enhancement (T1 weighted MRI), in words [2]: signal distribution only on the border and no signal enhancement inside the tumors after 55 min

Reference: patent US9333272B2, “Fibrin binding peptide conjugates for diagnostic and therapeutic applications” (Bracco Imaging SpA, priority 2006, dated 2016)
